Source: patent publication US20250163057A1, “DCN-1 MODULATING COMPOUNDS AND METHODS OF USE THEREOF” (Cellarity, Inc., priority 2023, published 2025)
Like-named read-outs stand apart in the source and are kept apart here.

How the values were obtained:
[1] = tested on: fetal hemoglobin gene HBG1; test: HBG1 Nanostring Assay in CD34+ HSPC erythroid differentiation culture; type: cell-based, human; conditions: for EC50: HBG1 induction, Day10 of erythroid differentiation; for Nanostring Ymax obs (%): relative to a control compound (C1)
Outline: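 HBG1 counts came from direct nCounter hybridization (67° C, 22 h) of day-10 lysates, normalized to ERCC positive controls and a housekeeping gene, giving EC50 and Ymax versus a reference compound. Compounds in 0.1% DMSO were present from day −2 while cells underwent EPO/SCF/IL-3 erythroid differentiation, with IL-3 dropped at day 7, at 37° C.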

[2] = tested on: Cullin-3 (CUL3) neddylation; test: AlphaLISA assay for Cullin-3 (CUL3) neddylation in TF 1 cells; type: cell-based; conditions: 3 hours treatment
Outline: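 Neddylated CUL3 was quantified by AlphaLISA in lysates of TF 1 cells exposed for 3 h to test compound in IMDM without supplements. Percent inhibition set between vehicle and 1 μM DI-1548 positive control; IC50 derived by Hill-equation fitting of dose-response curves.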

[3] = biological target: DCN1 (DCUND1) protein PONY domain (Homo sapiens (Human), UniProt Q96GG9); test: TR-FRET assay, DCN1 binding with FAM-labeled probe
Outline: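 Binding was read as the TR-FRET ratio between a FAM-tagged inhibitor probe and Tb-labeled biotinylated E. coli-expressed DCN1 PONY domain, measured 1, 5 and 24 h after compound addition. The two setups used 5 nM protein/20 nM FAM-probe or 0.31 nM protein/900 nM total probe (100 nM labeled), in TritonX buffer with 200 mM NaCl.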

[4] = biological target: DCN1 protein (Homo sapiens (Human), UniProt Q96GG9); test: Intact Protein MS Analysis with the RapidFire-TOF System (covalent adduct formation); type: binding; conditions: MS Emax; 400 nM DCN1, 3 hours at room temperature
Outline: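 Tag-cleaved human DCN1 (400 nM) expressed in E. coli, in 25 mM Tris-HCl, 200 mM NaCl, 1 mM DTT, was incubated with 11 compound concentrations for 3 h at room temperature and quenched with 0.2% formic acid. Intact-protein Q-TOF MS with deconvolution detected the compound adduct mass.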

[5] = 24 hr after treatment with compound, read-out: TR FRET IC50 24 hr
[6] = TR FRET IC50 1 hr (nM), 1 hr after treatment with compound
[7] = read-out: TR FRET IC50 1 hr, 1 hr after treatment with compound

DCN1 (DCUND1) protein PONY domain, sequence (Q96GG9 60-248): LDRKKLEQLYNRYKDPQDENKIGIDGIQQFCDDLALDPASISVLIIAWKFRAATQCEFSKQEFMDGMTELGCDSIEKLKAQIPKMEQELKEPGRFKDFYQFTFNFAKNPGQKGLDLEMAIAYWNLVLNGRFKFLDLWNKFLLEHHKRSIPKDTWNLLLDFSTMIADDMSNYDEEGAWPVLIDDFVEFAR
DCN1 protein, sequence (Q96GG9 whole entry): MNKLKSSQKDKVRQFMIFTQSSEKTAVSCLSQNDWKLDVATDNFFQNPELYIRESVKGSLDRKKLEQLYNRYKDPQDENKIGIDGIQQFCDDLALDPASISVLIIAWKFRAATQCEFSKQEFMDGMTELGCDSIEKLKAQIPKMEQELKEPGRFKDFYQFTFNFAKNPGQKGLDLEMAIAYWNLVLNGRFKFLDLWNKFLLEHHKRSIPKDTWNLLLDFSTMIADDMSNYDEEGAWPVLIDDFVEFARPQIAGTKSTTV

Structure (SMILES)	EC50 ([1]; Homo sapiens, 240 h) [nM]	Nanostring Ymax obs (%) [1]	IC50 ([2]; Homo sapiens, TF-1, 3 h) [nM]	IC50 [3, 5] [nM]	IC50 [3, 6] [nM]	% Adduct Formation [4]	IC50 [3, 7] [nM]	EC50 [1] [nM]	IC50 [2] [nM]
CCN1C(=O)[C@@H](NC(=O)c2cccc(C(F)(F)F)c2)[C@H](c2ccc(F)cc2)c2c(CNC(=O)/C=C(\C)C(=O)OC)nn(-c3ccccc3)c21 [Compound I-104]	> 1000	++ (Nanostring Ymax greater than 50.0 and less than or equal to 100.0)	100 to 1000	200 to 1000	200 to 1000	+ (MS Emax % adduct formation greater than or equal to 0.0 and less than or equal to 30.0)	–	–	–
C=C(CO)C(=O)NCc1nn(-c2ccccc2)c2c1[C@@H](c1ccc(F)cc1)[C@H](NC(=O)c1cccc(C(F)(F)F)c1)C(=O)N2CC [Compound I-106]	> 1000	++ (Nanostring Ymax greater than 50.0 and less than or equal to 100.0)	100 to 1000	200 to 1000	200 to 1000	+ (MS Emax % adduct formation greater than or equal to 0.0 and less than or equal to 30.0)	–	–	–
CCN1C(=O)[C@H](NC(=O)c2cccc(C(F)(F)F)c2)[C@@H](c2ccc(F)cc2)c2c(CNC(=O)/C(C)=C/C(=O)OC)nn(-c3ccccc3)c21 [Compound I-108]	> 1000	++ (Nanostring Ymax greater than 50.0 and less than or equal to 100.0)	≤ 100	200 to 1000	200 to 1000	+ (MS Emax % adduct formation greater than or equal to 0.0 and less than or equal to 30.0)	–	–	–
CCN1C(=O)[C@@H](NC(=O)c2cccc(C(F)(F)F)c2)[C@@H](c2ccc(F)cc2)c2c(CN(C)C(=O)/C=C/CN(C)C)nn(-c3ccccc3)c21 [Compound I-117]	> 1000	+ (Nanostring Ymax greater than or equal to 0.0 and less than or equal to 50.0)	> 1000	200 to 1000	200 to 1000	+ (MS Emax % adduct formation greater than or equal to 0.0 and less than or equal to 30.0)	–	–	–
CCN1C(=O)[C@@H](NC(=O)c2cccc(C(F)(F)F)c2)[C@@H](c2ccc(F)cc2)c2c(NC(=O)/C=C/C(F)(F)F)nn(-c3ccccc3)c21 [Compound I-125]	100 to 1000	+++ (Nanostring Ymax greater than 100.0)	≤ 100	200 to 1000	–	++ (MS Emax % adduct formation greater than 30.0 and less than or equal to 80.0)	> 3000	–	–
CCN1C(=O)[C@@H](NC(=O)c2cccc(C(F)(F)F)c2)[C@@H](c2ccc(F)cc2)c2c(CN(C)C#N)nn(-c3ccccc3)c21 [Compound I-129]	–	+ (Nanostring Ymax greater than or equal to 0.0 and less than or equal to 50.0)	–	≤ 200	200 to 1000	+++ (MS Emax % adduct formation greater than 80.0 and less than or equal to 100.0)	–	> 1000	100 to 1000
C=C(CC(=O)NCc1nn(-c2ccccc2)c2c1[C@@H](c1ccc(F)cc1)[C@H](NC(=O)c1cccc(C(F)(F)F)c1)C(=O)N2CC)C(=O)OC [Compound I-132]	> 1000	+ (Nanostring Ymax greater than or equal to 0.0 and less than or equal to 50.0)	100 to 1000	≤ 200	200 to 1000	++ (MS Emax % adduct formation greater than 30.0 and less than or equal to 80.0)	–	–	–
CCN1C(=O)[C@@H](NC(=O)c2cccc(C(F)(F)F)c2)[C@@H](c2ccc(F)cc2)c2c(C(=O)NCC#N)nn(-c3ccccc3)c21 [Compound I-148]	–	+ (Nanostring Ymax greater than or equal to 0.0 and less than or equal to 50.0)	100 to 1000	200 to 1000	1000 to 3000	+++ (MS Emax % adduct formation greater than 80.0 and less than or equal to 100.0)	–	–	–
C=C(C(=O)O)c1nn(-c2ccccc2)c2c1[C@H](c1ccc(F)cc1)[C@H](NC(=O)c1cccc(C(F)(F)F)c1)C(=O)N2CC [Compound I-153, 2-((4S,5S)-7-ethyl-4-(4-fluorophenyl)-6-oxo-1-phenyl-5-(3-(trifluoromethyl)benzamido)-4,5,6,7-tetrahydro-1H-pyrazolo[3,4-b]pyridin-3-yl)acrylic acid]	100 to 1000	++ (Nanostring Ymax greater than 50.0 and less than or equal to 100.0)	≤ 100	≤ 200	200 to 1000	++ (MS Emax % adduct formation greater than 30.0 and less than or equal to 80.0)	–	–	–
C[C@@H](NC#N)c1nn(-c2ccccc2)c2c1[C@H](c1ccc(F)cc1)[C@H](NC(=O)c1cccc(C(F)(F)F)c1)C(=O)N2CCO [Compound I-274]	–	+ (Nanostring Ymax greater than or equal to 0.0 and less than or equal to 50.0)	≤ 100	≤ 200	–	+++ (MS Emax % adduct formation greater than 80.0 and less than or equal to 100.0)	≤ 200	–	–
CCN1C(=O)[C@@H](NC(=O)c2cccc(C(F)(F)F)c2)[C@@H](c2ccc(F)cc2)c2c(C(=O)N3C[C@H](OC)C[C@H]3C#N)nn(C3CCOCC3)c21 [Compound I-358]	≤ 100	+++ (Nanostring Ymax greater than 100.0)	≤ 100	≤ 200	–	+++ (MS Emax % adduct formation greater than 80.0 and less than or equal to 100.0)	≤ 200	–	–
CCN1C(=O)[C@@H](NC(=O)c2cccc(C(F)(F)F)c2)[C@@H](c2ccc(F)cc2)c2c(C(=O)N3CC[C@H](OC)[C@H]3C#N)nn(C3CCOCC3)c21 [Compound I-359]	≤ 100	+++ (Nanostring Ymax greater than 100.0)	≤ 100	≤ 200	–	+++ (MS Emax % adduct formation greater than 80.0 and less than or equal to 100.0)	≤ 200	–	–
CCN1C(=O)[C@@H](NC(=O)c2cccc(C(F)(F)F)c2)[C@@H](c2ccc(F)cc2)c2c(C(=O)N3C[C@H](F)C[C@H]3C#N)nn(C3CCOCC3)c21 [Compound I-360]	≤ 100	+++ (Nanostring Ymax greater than 100.0)	≤ 100	≤ 200	–	+++ (MS Emax % adduct formation greater than 80.0 and less than or equal to 100.0)	≤ 200	–	–
CCN1C(=O)[C@@H](NC(=O)c2cccc(C(F)(F)F)c2)[C@@H](c2ccc(F)cc2)c2c(C(=O)N3CC(F)(F)C[C@H]3C#N)nn(C3CCOCC3)c21 [Compound I-361]	≤ 100	+++ (Nanostring Ymax greater than 100.0)	≤ 100	≤ 200	–	+++ (MS Emax % adduct formation greater than 80.0 and less than or equal to 100.0)	≤ 200	–	–
CCN1C(=O)[C@@H](NC(=O)c2cccc(C(F)(F)F)c2)[C@@H](c2ccc(F)cc2)c2c(C(=O)N3[C@H](C#N)C[C@H]4C[C@H]43)nn(C3COC3)c21 [Compound I-362, N-((4S,5S)-3-((1R,3S,5R)-3-cyano-2-azabicyclo[3.1.0]hexane-2-carbonyl)-7-ethyl-4-(4-fluorophenyl)-1-(oxetan-3-yl)-6-oxo-4,5,6,7-tetrahydro-1H-pyrazolo[3,4-b]pyridin-5-yl)-3-(trifluoromethyl)benzamide]	≤ 100	++ (Nanostring Ymax greater than 50.0 and less than or equal to 100.0)	≤ 100	≤ 200	–	+++ (MS Emax % adduct formation greater than 80.0 and less than or equal to 100.0)	≤ 200	–	–
